Consider 13 compounds from patent publication US7071212B2, “N-(4-carbamimidoyl-phenyl)-glycine derivatives” (Hoffmann-La Roche Inc., priority 1998, dated 2006).

Series [1] deals with T1, factor VIIa/tissue factor complex (Homo sapiens, UniProt P08709).
T1 construct: 9 nM of soluble factor VIIa
As to the kind of experiment: inhibition of the amidolytic activity of factor VIIa/tissue factor complex (chromogenic peptide substrate). The following applies: 26 nM tissue factor, 9 nM soluble factor VIIa, 8 mM calcium chloride, substrate Chromozym-tPA, pH 7.5, room temperature. In kind it is biochemical. As for the experimental part:
The measurements were carried out on microtitre plates at room temperature. To this end, 100 μl of a solution of 26 nM of tissue factor, 9 nM of soluble factor VIIa and 8 mM of calcium chloride were added to 25 μl of a solution of the inhibitor in a buffer [pH 7.5, 100 mM, comprising 0.14M NaCl, 0.1M N-(2-hydroxyethyl)piperazine-N′-(2-ethanesulphonic acid) (HEPES), 0.5 mg/l of fatty-acid-free BSA (bovine serum albumin) and 0.05% NaN3] in each well of the plate. After an incubation time of 15 minutes the reaction was started by the addition of 50 μl of chromogenic substrate Chromozym-tPA (3.5 mM, MeSO2-D-Phe-Gly-Arg-paranitroanilide) and the hydrolysis of the substrate was followed spectrophotometrically on a kinetic microtitre plate reader over 10 minutes. Using the plot of the inhibition curves, the Ki values were determined according to the method described in Biochem. J. 55, 1953, 170–171. The results will be evident from the following Table (Ki in μM/l): […]

T1 sequence (P08709 213-466 limits assumed): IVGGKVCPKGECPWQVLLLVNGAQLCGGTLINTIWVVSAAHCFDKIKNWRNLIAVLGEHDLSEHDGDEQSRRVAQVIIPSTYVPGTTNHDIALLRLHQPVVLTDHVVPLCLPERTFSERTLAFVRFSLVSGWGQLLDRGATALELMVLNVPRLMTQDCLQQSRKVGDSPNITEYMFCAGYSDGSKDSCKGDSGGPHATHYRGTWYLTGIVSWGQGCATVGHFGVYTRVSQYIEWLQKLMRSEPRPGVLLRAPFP
T1 sequence (P08709 61-212 partner limits assumed): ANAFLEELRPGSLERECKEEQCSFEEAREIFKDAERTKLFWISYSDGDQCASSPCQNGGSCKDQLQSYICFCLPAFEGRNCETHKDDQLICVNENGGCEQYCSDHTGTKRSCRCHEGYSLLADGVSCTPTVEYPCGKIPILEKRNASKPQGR
T1 sequence (P13726 33-295 partner): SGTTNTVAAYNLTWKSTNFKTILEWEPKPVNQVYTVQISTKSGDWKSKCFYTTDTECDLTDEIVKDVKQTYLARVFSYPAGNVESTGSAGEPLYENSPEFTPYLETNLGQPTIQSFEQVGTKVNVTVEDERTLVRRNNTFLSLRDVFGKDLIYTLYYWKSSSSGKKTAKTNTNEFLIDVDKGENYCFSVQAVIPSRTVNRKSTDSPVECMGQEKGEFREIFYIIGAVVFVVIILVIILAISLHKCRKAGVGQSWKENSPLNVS

Consider `COc1ccc(OCC(=O)O)c(C(Nc2ccc(C(=N)N)cc2)C(=O)O)c1` (racemic) [Example 43.4, (RS)-(4-carbamimidoyl-phenylamino)-(2-carboxymethoxy-5-methoxy-phenyl)-acetic acid], for which the melting point – broadly, the temperature, or range, at which the solid turns liquid – came to 213 °C.

Consider `[H]/N=C(\NO)c1ccc(NC(C(=O)OC)c2cc(OC)c(OC)cc2OCc2cccc(C(=O)OC)c2)cc1` (racemic) [Example 52.3, methyl (Z)-(RS)-3-(2-{[4-(N-hydroxycarbamimidoyl)-phenylamino]-methoxycarbonyl-methyl}-4,5-dimethoxy-phenoxymethyl)-benzoate], for which the melting point stood at 173 °C.

`COc1ccc(OC)c(C(Nc2ccc(C(=N)N)cc2)C(=O)O)c1` (racemic) [Example 41.4, (RS)-(4-carbamimidoyl-phenylamino)-(2,5-dimethoxy-phenyl)-acetic acid] came in with a melting point of 310 °C.

As for `CCCc1cc(C)c(OCCO)c(C(Nc2ccc(C(=N)N)cc2)C(=O)O)c1` (racemic) [Example 58.5, (RS)-(4-carbamimidoyl-phenylamino)-[2-(2-hydroxy-ethoxy)-3-methyl-5-propyl-phenyl]-acetic acid], the melting point was 230 °C.

On to `CCCc1cc(C)cc(C(Nc2ccc(C(=N)N)cc2)C(=O)O)c1OCCO` (racemic) [Example 56.5, (RS)-(4-carbamimidoyl-phenylamino)-[2-(2-hydroxy-ethoxy)-5-methyl-3-propyl-phenyl]-acetic acid], for which the melting point amounted to 240 °C.

Consider `CCOc1ccc(OCCOC)c(C(Nc2ccc(C(=N)N)cc2)C(=O)O)c1` (racemic) [Example 46.4, (RS)-(4-carbamimidoyl-phenylamino)-[5-ethoxy-2-(2-methoxy-ethoxy)-phenyl]-acetic acid], for which the melting point worked out at 275 °C.

`CCOc1ccc(OCCCCC(=O)O)c(C(Nc2ccc(C(=N)N)cc2)C(=O)O)c1` (racemic) [Example 45.4, (RS)-5-{2-[(4-carbamimidoyl-phenylamino)-carboxy-methyl]-4-ethoxy-phenoxy}-pentanoic acid] registered a melting point of 260 °C.

As for `COc1cc(OC)c(OCC(=O)O)c(C(Nc2ccc(C(=N)N)cc2)C(=O)O)c1` (racemic) [Example 15, (RS)-(4-carbamimidoyl-phenylamino)-(2-carboxymethoxy-3,5-dimethoxy-phenyl)-acetic acid], in series [1], the Ki (as a rule, a dissociation constant, usually derived from enzyme kinetics or from competition with a known ligand) is 84 nM.

Consider `COc1cc(OCC(=O)O)c(C(Nc2ccc(C(=N)N)cc2)C(=O)O)cc1OC` (racemic) [Example 17, (RS)-(4-carbamimidoyl-phenylamino)-(2-carboxymethoxy-4,5-dimethoxy-phenyl)-acetic acid], for which the Ki in series [1] was found to be 38.5 nM.

Take `CCOc1ccc(OCC(N)=O)c(C(Nc2ccc(C(=N)N)cc2)C(=O)O)c1` (racemic) [Example 48.5, (RS)-(4-carbamimidoyl-phenylamino)-(2-carbamoylmethoxy-5-ethoxy-phenyl)-acetic acid]: the melting point worked out at 266 °C.

Regarding `C=CCc1cc(C)cc(C(Nc2ccc(C(=N)N)cc2)C(=O)O)c1OCCO` (racemic) [Example 57.4, (RS)-[3-allyl-2-(2-hydroxy-ethoxy)-5-methyl-phenyl]-(4-carbamimidoyl-phenylamino)-acetic acid], the melting point came to 228 °C.

Consider `N=C(N)c1ccc(NC(C(=O)O)c2ccccc2OCC(=O)O)cc1` (racemic) [Example 40.3, (RS)-(4-carbamimidoyl-phenylamino)-(2-carboxymethoxy-phenyl)-acetic acid], for which the melting point was determined as 223 °C.

`N=C(N)c1ccc(NC(C(=O)O)c2cccc(OCc3ccccc3)c2)cc1` (racemic) [Example 39.4, (RS)-(3-benzyloxy-phenyl)-(4-carbamimidoyl-phenylamino)-acetic acid]: the melting point came out at 306 °C.
